Laboratory results from patent US9969755B2, “Photodynamic therapy photosensitizers” (The Royal Institution for the Advancement of …, priority 2016, dated 2018).

Experiments:
[1] = Autocatalytic activation of compound 7 (monitoring fluorescence); format: physicochemical
Experimental: The increase in the fluorescence emission due to autocatalytic activation of compound 7 was followed by continuous irradiation at 532 nm and 1.6 mW/cm^2 in air equilibrated acetonitrile using a PTI QuantaMaster spectrofluorimeter. The emission at 557 nm was measured as a function of the irradiation time. Samples were prepared as described above (see Autocatalytic Activation of Compound 7 (Monitoring ^1O2 Phosphorescence)).

[2] = Autocatalytic activation of compound 7 (monitoring ^1O2 phosphorescence); format: physicochemical
Experimental: ^1O2 phosphorescence (1270 nm) was monitored with a Hamamatsu NIR detector after different irradiation periods with a Nd:YAG laser operating at 10 Hz. The energy of each laser pulse was 10 mJ exciting at 532 nm. Using the same procedure as described above (Determination of ^1O2 Quantum Yield), a total of 3 laser shots were applied to acquire a trace at different time intervals following the continuous irradiation by a second Nd:YAG laser setup. Laser excitation was performed at 10 Hz, providing one laser output for every discharge of the flashlamp. The energy of each laser pulse was 10 mJ. To prepare the samples with PMHC, we first added to the solvent (acetonitrile, air equilibrated) the desired amount of PMHC from a stock solution. Then, compound 7 was dissolved until reaching Abs=0.3 ([7]=5.8 μM). For the samples containing compound 4, we first dissolved 4 in a stock solution of acetonitrile containing 0.12 μM of PMHC and then the desired volume of this solution was added to the solution containing 7 and same concentration of the antioxidant (0.12 μM of PMHC).

## CC1=C(Br)C(C)=[N+]2C1=C(CC1(C)CCc3c(C)c(O)c(C)c(C)c3O1)c1c(C)c(Br)c(C)n1[B-]2(F)F (stereo not drawn) [Compound 7, 8-((6-Hydroxy-2,5,7,8-tetramethylchroman-2-yl)-methyl)-2,6-dibromo-1,3,5,7-tetramethyl]
[1]
  fraction of 7 pre-oxidized during sample preparation: less than 5%
[1]; 0.12 μM sacrificial PMHC, continuous irradiation at 532 nm
  Fluorescence intensity enhancements: ~30 fold
[1]; fit to equation 9, different conditions
  k, apparent second order rate constant for autocatalytic activation: ~133 M⁻¹ s⁻¹
[2]; 250 μM PMHC added, before prolonged irradiation
  φΔ: undetectable
[2]; 250 μM PMHC added, within the instrument response
  ^1O2 phosphorescence lifetime: ~3 μs
[2]; 250 μM PMHC, 8 hs, ˜300,000 laser shots, 10 mJ/pulse
  increase in φΔ after prolonged irradiation: ca. 25 fold
[2]; assuming geminate quenching 100% effective, 5-3% chemical
  fraction of photoexcited 7 undergoing activation through reaction with its own singlet oxygen: smaller than 2×10^−4
[2]; assuming keT˜25×kISC and k′eT˜10×kq[O2]
  fraction of photoexcited 7 effectively sensitizing singlet oxygen: < 4×10^−3
[2]; direct 532 nm laser excitation, air equilibrated acetonitrile, no PMHC
  increase in φΔ over irradiation time: ca. 6 fold
